Several values for one entry are separate records, joined by “and”; a condition that tells them apart may be missing. Identical values can stand only once.
Test: xn = mol fraction of the nth substance listed

[Cl-].[Cl-].[Mg+2] + O
viscosity
Settings | 293.15 K | 298.15 K | 303.15 K | 308.15 K | 318.15 K
101 kPa, x1 = 0.0944 | – | 13.8 mPa·s | – | – | –
101.3 kPa, x1 = 0.0009 | 1.025 mPa·s | 0.911 mPa·s | 0.8162 mPa·s | 0.7364 mPa·s | 0.6104 mPa·s
101.3 kPa, x1 = 0.0018 | 1.046 mPa·s | 0.9296 mPa·s and 0.936 mPa·s | 0.8329 mPa·s | 0.7517 mPa·s and 0.759 mPa·s | 0.629 mPa·s
101.3 kPa, x1 = 0.0045 | – | 0.988 mPa·s | – | 0.798 mPa·s | 0.662 mPa·s
101.3 kPa, x1 = 0.0089 | – | 1.075 mPa·s | – | 0.867 mPa·s | 0.72 mPa·s
101.3 kPa, x1 = 0.00893 | 1.219 mPa·s | 1.085 mPa·s | 0.9729 mPa·s | 0.8788 mPa·s | 0.7293 mPa·s
101.3 kPa, x1 = 0.0177 | 1.475 mPa·s | 1.314 mPa·s | 1.179 mPa·s | 1.065 mPa·s | 0.8849 mPa·s
101.3 kPa, x1 = 0.03478 | 2.199 mPa·s | 1.95 mPa·s | 1.747 mPa·s | 1.574 mPa·s | 1.302 mPa·s
101.3 kPa, x1 = 0.05127 | 3.332 mPa·s | 2.937 mPa·s | 2.616 mPa·s | 2.346 mPa·s | 1.926 mPa·s
101.3 kPa, x1 = 0.06722 | 5.271 mPa·s | 4.603 mPa·s | 4.064 mPa·s | 3.615 mPa·s | 2.926 mPa·s
101.3 kPa, x1 = 0.08263 | 9.001 mPa·s | 7.752 mPa·s | 6.761 mPa·s | 5.951 mPa·s | 4.726 mPa·s

[Cl-].[Cl-].[Cl-].[Cl-].[Ti+4] + [Cl-].[Cl-].[Cl-].[Cl-].[Sn+4]
viscosity [mPa·s], 101 kPa
Settings | x2 = 0.2 | x2 = 0.4 | x2 = 0.6 | x2 = 0.8
293.15 K | 0.847 | 0.87 | 0.895 | 0.922
313.15 K | 0.702 | 0.703 | 0.705 | 0.709

CCCCOCCO + O=C1CCCCC1
298.15 K, 101 kPa
Settings | viscosity
x2 = 0.118 | 2.522 mPa·s and 2.642 mPa·s
x2 = 0.2314 | 2.28 mPa·s and 2.518 mPa·s
x2 = 0.3404 | 2.108 mPa·s and 2.402 mPa·s
x2 = 0.4453 | 1.972 mPa·s and 2.304 mPa·s
x2 = 0.5463 | 1.873 mPa·s and 2.217 mPa·s
x2 = 0.6436 | 1.795 mPa·s and 2.146 mPa·s
x2 = 0.7375 | 1.763 mPa·s and 2.087 mPa·s
x2 = 0.8281 | 1.766 mPa·s and 2.048 mPa·s
x2 = 0.9155 | 1.822 mPa·s and 2.024 mPa·s

CCCCCCCCCCCC[P+](CCCC)(CCCC)CCCC.N#Cc1ccc[n-]1 + OCCN(CCO)CCO
100 kPa
Settings | viscosity [mPa·s]
293.15 K, x1 = 0.017 | 983
293.15 K, x1 = 0.244 | 974
293.15 K, x1 = 0.325 | 926
293.15 K, x1 = 0.431 | 828
293.15 K, x1 = 0.538 | 765
293.15 K, x1 = 0.755 | 675
298.15 K, x1 = 0.035 | 674
298.15 K, x1 = 0.054 | 682
298.15 K, x1 = 0.096 | 687
298.15 K, x1 = 0.121 | 686
298.15 K, x1 = 0.177 | 678

c1ccc2c(c1)CCCC2 + CCCCCCCCC
viscosity [mPa·s], 101 kPa
Settings | x2 = 0.1063 | x2 = 0.2018 | x2 = 0.3066 | x2 = 0.4057 | x2 = 0.5014 | x2 = 0.6005 | x2 = 0.704 | x2 = 0.7942 | x2 = 0.8898
293.15 K | 1.814 | 1.585 | 1.352 | 1.198 | 1.082 | 0.976 | 0.89 | 0.826 | 0.784
298.15 K | 1.653 | 1.45 | 1.254 | 1.111 | 1.006 | 0.908 | 0.833 | 0.775 | 0.735
303.15 K | 1.518 | 1.334 | 1.151 | 1.034 | 0.937 | 0.848 | 0.777 | 0.728 | 0.69
313.15 K | 1.308 | 1.148 | 0.997 | 0.905 | 0.821 | 0.749 | 0.69 | 0.649 | 0.615

CC(C)OCCO + O=C1CCCN1
298.15 K, 101 kPa
Settings | viscosity [mPa·s]
x1 = 0.0071 | 13.9
x1 = 0.0159 | 13.59
x1 = 0.0316 | 12.93
x1 = 0.0611 | 11.92
x1 = 0.1046 | 10.57
x1 = 0.1603 | 9.092
x1 = 0.2294 | 7.709
x1 = 0.2699 | 7.051
x1 = 0.3267 | 6.264
x1 = 0.3725 | 5.709
x1 = 0.4121 | 5.308
x1 = 0.4371 | 5.073
x1 = 0.4623 | 4.846
x1 = 0.5125 | 4.439
x1 = 0.5675 | 4.067
x1 = 0.6092 | 3.792
x1 = 0.6833 | 3.388
x1 = 0.7418 | 3.111
x1 = 0.7986 | 2.871
x1 = 0.8498 | 2.672
x1 = 0.888 | 2.528
x1 = 0.9155 | 2.412
x1 = 0.943 | 2.304
x1 = 0.9583 | 2.252
x1 = 0.9786 | 2.193

CCOCCOCCOCC + CCCN
298.15 K, 101 kPa
Settings | viscosity [mPa·s]
x1 = 0.005 | 0.361
x1 = 0.0106 | 0.367
x1 = 0.0197 | 0.379
x1 = 0.0413 | 0.402
x1 = 0.0623 | 0.423
x1 = 0.0897 | 0.451
x1 = 0.1329 | 0.498
x1 = 0.1762 | 0.538
x1 = 0.2138 | 0.572
x1 = 0.2434 | 0.6
x1 = 0.2446 | 0.603
x1 = 0.2849 | 0.636
x1 = 0.2887 | 0.64
x1 = 0.3251 | 0.672
x1 = 0.3686 | 0.709
x1 = 0.4053 | 0.737
x1 = 0.4615 | 0.786
x1 = 0.5261 | 0.848
x1 = 0.5564 | 0.875
x1 = 0.6025 | 0.919
x1 = 0.6358 | 0.951
x1 = 0.6749 | 0.988
x1 = 0.7261 | 1.038
x1 = 0.7852 | 1.09
x1 = 0.8437 | 1.152
x1 = 0.8917 | 1.201
x1 = 0.9396 | 1.235
x1 = 0.9698 | 1.248

O=C(OCc1ccccc1)c1ccccc1 + Cc1ccccc1
298.15 K, 101 kPa
Settings | viscosity [mPa·s]
x1 = 0.2369 | 1.183
x1 = 0.4262 | 2.015
x1 = 0.6505 | 3.614
x1 = 0.789 | 5.08
x1 = 0.9002 | 6.66

CNC=O + Cc1ccccc1N
viscosity [mPa·s], 100 kPa
Settings | x1 = 0.0896 | x1 = 0.1601 | x1 = 0.2501 | x1 = 0.3425 | x1 = 0.4328 | x1 = 0.5424 | x1 = 0.6554 | x1 = 0.7342 | x1 = 0.8414
303.15 K | 3.114 | 3 | 2.853 | 2.702 | 2.553 | 2.369 | 2.179 | 2.045 | 1.86
308.15 K | 2.708 | 2.617 | 2.498 | 2.375 | 2.254 | 2.105 | 1.95 | 1.84 | 1.689
313.15 K | 2.393 | 2.317 | 2.219 | 2.117 | 2.016 | 1.892 | 1.763 | 1.671 | 1.544
318.15 K | 2.081 | 2.022 | 1.946 | 1.865 | 1.786 | 1.688 | 1.585 | 1.513 | 1.411

CCOC(=O)CCl + COc1ccccc1
viscosity [mPa·s], 101.3 kPa
Settings | x1 = 0.1012 | x1 = 0.2027 | x1 = 0.3 | x1 = 0.3936 | x1 = 0.4982 | x1 = 0.6022 | x1 = 0.6954 | x1 = 0.7934 | x1 = 0.8919
298.15 K | 0.983 | 0.987 | 0.989 | 0.996 | 1.004 | 1.019 | 1.033 | 1.049 | 1.072
303.15 K | 0.915 | 0.916 | 0.918 | 0.925 | 0.932 | 0.945 | 0.958 | 0.975 | 0.993
308.15 K | 0.847 | 0.847 | 0.848 | 0.853 | 0.861 | 0.871 | 0.884 | 0.901 | 0.915
